Earlier results on two molecules are cited in patent US20240016871A1, “Non-toxic furocoumarin-rich plant extracts and related compositions for use as antimicrobial substance or medicament and other therapeutic uses” (ICE-P LIFE, S.L., priority 2020, published 2024).

The test system of one data set is p53 knockout mouse. The note with it: platelets treated with amotosalen, after filtration and removal of amotosalen conjugated with pathogens.
A further data set concerns DBA/2 strain mice. The note with it: single oral doses.

Consider `Cc1oc2c(C)c3oc(=O)cc(C)c3cc2c1COCCN.Cl` [amotosalen, amotosalen HCl], for which the carcinogenicity result in the data set with p53 knockout mouse is “non-carcinogenic”. In the case of `O=c1ccc2ccccc2o1` [coumarin], in the data set with DBA/2 strain mice, the liver necrosis entry was “produce liver necrosis”.
